{
  "source": "paper PMC7799360",
  "about": "“Reprogramming immunosuppressive myeloid cells facilitates immunotherapy for colorectal cancer” (EMBO Molecular Medicine, 2020)",
  "key": {"mouse bone marrow cells": {"system": "mouse bone marrow cells", "assay": "Macrophage polarization assay (M-CSF/IL-4/PGE2, M2 macrophages)", "type": "cell-based", "conditions": "M-CSF/IL-4/PGE2, 6 days, concentration-dependent", "method": "Single‐cell suspensions of mouse BM cells were prepared by filtering femurs and tibias of 6‐week‐old female BALB/c mice through 40‐μm cell strainers (Falcon). These suspensions were treated with red blood cell lysis buffer and replated in conditioned medium. Monocyte differentiation, MDSC induction, and macrophage polarization were analyzed by FACS analysis (BD Biosciences) with FlowJo software.\nFor macrophage polarization assay (De Henau et al., 2016; Tan et al., 2018), mouse BM cells were cultured in RPMI1640 medium supplemented with recombinant mouse M‐CSF (20 ng/ml, Peprotech) to generate BM‐derived macrophages (BMDM). For FACS analysis of BM‐derived M2‐like macrophage, IL‐4 (20 ng/ml, Peprotech) and PGE2 (10 nM) were added on day 0. TP‐16 was added simultaneously with PGE2 on day 0 or sequentially on day 3 for differentiation over a period of 6 days. For qPCR analysis of macrophages (day 6), BMDMs were polarized with IFNγ (50 ng/ml, Peprotech) or IL‐4 (20 ng/ml, Peprotech) ± PGE2 (10 nM) ± TP‐16 for 24 h at 37°C on day 6. The culture medium was refreshed every 3 days."}, "ADORA2A": {"molecular_target": "T1, ADORA2A (Homo sapiens, UniProt P29274)", "T1 construct": "Pharmaron (Beijing, China) performed the assay", "T1 sequence (P29274 whole entry, species assumed)": "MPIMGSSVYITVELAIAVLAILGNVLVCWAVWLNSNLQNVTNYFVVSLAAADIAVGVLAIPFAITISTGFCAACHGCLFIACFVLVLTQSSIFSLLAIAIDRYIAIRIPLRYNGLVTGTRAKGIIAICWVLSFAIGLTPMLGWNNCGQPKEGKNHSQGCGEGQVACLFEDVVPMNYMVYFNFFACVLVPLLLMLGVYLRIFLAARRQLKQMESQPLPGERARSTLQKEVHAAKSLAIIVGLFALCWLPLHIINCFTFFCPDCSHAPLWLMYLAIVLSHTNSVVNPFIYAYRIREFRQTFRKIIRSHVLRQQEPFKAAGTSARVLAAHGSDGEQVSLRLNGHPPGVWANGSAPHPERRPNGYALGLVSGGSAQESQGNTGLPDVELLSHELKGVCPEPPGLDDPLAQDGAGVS", "assay": "LANCE Ultra cAMP assay", "type": "cell-based"}, "OPRK1": {"molecular_target": "T2, OPRK1 (Homo sapiens, UniProt P41145)", "T2 construct": "Pharmaron (Beijing, China), contract laboratory", "T2 sequence (P41145 whole entry, species assumed)": "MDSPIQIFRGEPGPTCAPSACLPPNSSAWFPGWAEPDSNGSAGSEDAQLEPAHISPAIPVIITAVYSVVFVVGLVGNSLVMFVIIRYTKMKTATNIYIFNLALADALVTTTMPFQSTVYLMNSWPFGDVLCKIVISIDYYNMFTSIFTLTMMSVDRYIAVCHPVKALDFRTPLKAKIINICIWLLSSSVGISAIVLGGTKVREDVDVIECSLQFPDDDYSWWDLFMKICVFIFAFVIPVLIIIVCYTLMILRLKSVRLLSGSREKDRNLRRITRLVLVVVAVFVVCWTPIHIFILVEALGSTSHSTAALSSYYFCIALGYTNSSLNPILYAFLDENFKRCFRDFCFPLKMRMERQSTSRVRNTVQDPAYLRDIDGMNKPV", "assay": "GPCR calcium flux assay", "type": "cell-based"}, "OPRD1": {"molecular_target": "T3, OPRD1 (Homo sapiens, UniProt P41143)", "T3 construct": "Pharmaron (Beijing, China), contract laboratory", "T3 sequence (P41143 whole entry, species assumed)": "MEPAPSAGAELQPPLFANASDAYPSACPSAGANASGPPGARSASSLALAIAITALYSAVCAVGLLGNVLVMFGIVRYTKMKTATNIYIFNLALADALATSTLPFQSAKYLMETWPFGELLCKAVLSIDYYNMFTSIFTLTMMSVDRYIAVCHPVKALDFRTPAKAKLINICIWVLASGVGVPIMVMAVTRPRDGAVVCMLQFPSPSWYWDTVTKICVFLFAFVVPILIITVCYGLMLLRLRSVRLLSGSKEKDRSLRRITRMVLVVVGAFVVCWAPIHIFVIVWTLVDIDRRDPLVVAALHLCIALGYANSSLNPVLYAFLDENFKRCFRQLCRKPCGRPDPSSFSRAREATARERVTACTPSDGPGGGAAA", "assay": "GPCR calcium flux assay", "type": "cell-based"}, "DRD2": {"molecular_target": "DRD2 (Homo sapiens, UniProt P14416)", "sequence (P14416 whole entry, species assumed)": "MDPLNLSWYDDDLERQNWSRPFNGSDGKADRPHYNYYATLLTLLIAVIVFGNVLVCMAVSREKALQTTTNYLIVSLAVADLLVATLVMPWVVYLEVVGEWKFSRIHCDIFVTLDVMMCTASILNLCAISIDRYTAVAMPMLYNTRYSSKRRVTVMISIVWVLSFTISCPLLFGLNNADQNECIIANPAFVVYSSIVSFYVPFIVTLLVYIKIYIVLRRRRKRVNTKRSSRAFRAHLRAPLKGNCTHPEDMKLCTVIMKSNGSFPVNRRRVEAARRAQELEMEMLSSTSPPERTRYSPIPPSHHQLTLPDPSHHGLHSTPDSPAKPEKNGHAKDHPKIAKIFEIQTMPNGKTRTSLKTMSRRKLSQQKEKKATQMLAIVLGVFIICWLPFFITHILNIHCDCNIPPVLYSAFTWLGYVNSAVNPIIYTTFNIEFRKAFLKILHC", "assay": "LANCE Ultra cAMP assay"}, "AODRA1": {"molecular_target": "AODRA1 (Homo sapiens, UniProt P30542)", "sequence (P30542 whole entry)": "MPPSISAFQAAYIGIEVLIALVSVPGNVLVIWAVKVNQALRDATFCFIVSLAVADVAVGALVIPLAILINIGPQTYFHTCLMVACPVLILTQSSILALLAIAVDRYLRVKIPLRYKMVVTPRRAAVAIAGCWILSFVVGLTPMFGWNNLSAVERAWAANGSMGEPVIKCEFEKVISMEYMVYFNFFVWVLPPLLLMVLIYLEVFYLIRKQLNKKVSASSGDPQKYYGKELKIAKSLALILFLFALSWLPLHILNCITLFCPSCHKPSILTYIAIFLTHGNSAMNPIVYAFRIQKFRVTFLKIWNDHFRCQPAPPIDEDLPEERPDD", "assay": "LANCE Ultra cAMP assay"}, "CT26-Luc tumors": {"system": "CT26-Luc tumors", "assay": "CT26-Luc orthotopic colorectal cancer mouse model", "type": "in vivo"}, "CHRM1": {"molecular_target": "T4, CHRM1 (Homo sapiens, UniProt P11229)", "T4 construct": "Pharmaron (Beijing, China), contract laboratory", "T4 sequence (P11229 whole entry, species assumed)": "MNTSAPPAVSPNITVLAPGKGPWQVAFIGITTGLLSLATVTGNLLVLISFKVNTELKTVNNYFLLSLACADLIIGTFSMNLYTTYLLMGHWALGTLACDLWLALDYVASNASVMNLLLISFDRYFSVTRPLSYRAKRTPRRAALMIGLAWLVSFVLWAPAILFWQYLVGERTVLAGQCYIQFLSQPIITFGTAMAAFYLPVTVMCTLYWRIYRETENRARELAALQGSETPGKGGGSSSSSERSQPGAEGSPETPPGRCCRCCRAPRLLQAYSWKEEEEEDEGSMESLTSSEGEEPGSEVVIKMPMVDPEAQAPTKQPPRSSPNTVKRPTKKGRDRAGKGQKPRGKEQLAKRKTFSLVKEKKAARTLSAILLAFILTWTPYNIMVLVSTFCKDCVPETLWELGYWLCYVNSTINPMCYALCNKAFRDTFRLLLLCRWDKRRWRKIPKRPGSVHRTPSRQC", "assay": "GPCR calcium flux assay", "type": "cell-based"}, "[1]": {"system": "AOM/DSS-induced colorectal tumors", "assay": "AOM/DSS-induced colorectal cancer model", "type": "in vivo, mouse", "conditions": "AOM/DSS mice, TP-16 75 mg/kg po daily, anti-PD-1 50 μg ip twice weekly, 5 weeks", "method": "; i.p.; Sigma‐Aldrich, St. Louis, MO, USA). After 1 week of rest, mice were provided with 2.5% DSS (MP Biomedicals, Santa Ana, CA, USA) in their drinking water for 5 days, followed by DSS‐free water for two weeks. The DSS treatment cycle was carried out three times in total, and mice were randomized into four groups and subjected to the therapeutic protocol. Mice were sacrificed at 37 days after the indicated treatments.\n(§1) Single agent or combination treatment was designed as follows: TP‐16 (37.5, 75, 150 mg/kg) or celecoxib (100 mg/kg) was formulated in 0.5% carboxymethylcellulose sodium (CMC‐Na, Sangon Biotech, Shanghai, China) and administered via oral gavage daily. In vivo anti‐PD1 antibody (clone RMP1‐14, BioXCell, West Lebanon, NH, USA) and rat IgG2a isotype control (clone 2A3, BioXCell) were diluted in sterile PBS and administered intraperitoneally at a dose of 50 μg twice weekly."}, "[2]": {"assay": "Pharmacokinetics in CD1 mice", "type": "in vivo, mouse", "conditions": "for AUC(0-t): read-out: AUC0-24", "from_the_text": "5% (v/v) dimethyl sulfoxide ( DMSO), 10% solutol, and 85% β -cyclodextrin) to male CD1 mice (n = 3). Blood samples were collected at 0.08, 0.25, 0.5, 1, 2, 4, 8, and 24 hr after administration. After suitable sample preparation, the concentration of TP -16 in plasma samples was determine d by the Agilent 1290 HPLC system, coupled with a 6460 triple -quadrupole mass spectrometer and an Agilent Jet Stream electrospray ionization (ESI) source (Agilent\nTechnologies, USA). Pharmacokinetic parameters were calculated by WinNonlin software version 7.0 based on non -compartmental analysis\n(Pharsight Corporation, Mountain View, USA). […]"}, "CHRM3": {"molecular_target": "T5, CHRM3 (Homo sapiens, UniProt P20309)", "T5 construct": "Pharmaron (Beijing, China), contract laboratory", "T5 sequence (P20309 whole entry, species assumed)": "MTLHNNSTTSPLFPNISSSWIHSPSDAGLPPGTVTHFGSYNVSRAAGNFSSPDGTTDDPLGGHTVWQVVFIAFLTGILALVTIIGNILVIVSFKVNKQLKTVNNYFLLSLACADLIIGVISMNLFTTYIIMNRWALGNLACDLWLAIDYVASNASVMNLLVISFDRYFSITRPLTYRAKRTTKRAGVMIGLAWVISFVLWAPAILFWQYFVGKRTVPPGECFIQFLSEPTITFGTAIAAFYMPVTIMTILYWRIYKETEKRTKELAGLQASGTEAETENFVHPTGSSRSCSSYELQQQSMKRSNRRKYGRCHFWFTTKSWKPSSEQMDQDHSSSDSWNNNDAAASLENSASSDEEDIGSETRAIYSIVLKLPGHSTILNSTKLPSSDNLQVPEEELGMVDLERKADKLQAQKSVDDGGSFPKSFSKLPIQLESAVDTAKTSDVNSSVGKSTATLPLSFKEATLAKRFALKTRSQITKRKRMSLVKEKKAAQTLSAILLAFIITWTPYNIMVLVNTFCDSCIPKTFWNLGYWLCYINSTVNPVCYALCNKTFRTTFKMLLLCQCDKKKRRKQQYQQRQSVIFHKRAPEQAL", "assay": "GPCR calcium flux assay", "type": "cell-based"}, "CHRM2": {"molecular_target": "T6, CHRM2 (Homo sapiens, UniProt P08172)", "T6 construct": "Pharmaron (Beijing, China), contract laboratory", "T6 sequence (P08172 whole entry, species assumed)": "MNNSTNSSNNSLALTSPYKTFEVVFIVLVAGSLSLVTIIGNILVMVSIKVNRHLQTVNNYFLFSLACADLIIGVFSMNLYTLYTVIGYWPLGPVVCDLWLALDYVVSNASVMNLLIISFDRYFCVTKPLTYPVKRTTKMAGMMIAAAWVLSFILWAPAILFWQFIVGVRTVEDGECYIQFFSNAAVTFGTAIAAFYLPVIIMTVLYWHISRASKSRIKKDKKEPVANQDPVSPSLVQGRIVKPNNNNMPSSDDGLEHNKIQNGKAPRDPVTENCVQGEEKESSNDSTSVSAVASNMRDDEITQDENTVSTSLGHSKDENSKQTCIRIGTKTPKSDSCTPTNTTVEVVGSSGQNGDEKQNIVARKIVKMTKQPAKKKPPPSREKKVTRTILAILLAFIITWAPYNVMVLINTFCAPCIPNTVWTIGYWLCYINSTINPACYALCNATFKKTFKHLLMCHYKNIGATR", "assay": "GPCR calcium flux assay", "type": "cell-based"}, "ADORA2B": {"molecular_target": "ADORA2B (Homo sapiens, UniProt P29275)", "sequence (P29275 whole entry, species assumed)": "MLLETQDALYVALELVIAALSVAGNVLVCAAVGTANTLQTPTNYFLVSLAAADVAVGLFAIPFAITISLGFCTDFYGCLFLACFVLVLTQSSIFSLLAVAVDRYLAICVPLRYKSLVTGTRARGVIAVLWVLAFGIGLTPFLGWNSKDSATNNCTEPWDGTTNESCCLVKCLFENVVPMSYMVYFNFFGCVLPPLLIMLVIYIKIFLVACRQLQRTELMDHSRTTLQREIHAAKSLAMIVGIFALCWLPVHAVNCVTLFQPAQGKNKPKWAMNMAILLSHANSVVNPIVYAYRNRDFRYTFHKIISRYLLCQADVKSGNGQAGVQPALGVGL", "assay": "LANCE Ultra cAMP assay"}, "Pan02 tumors": {"system": "Pan02 tumors", "assay": "Pan02 pancreatic cancer model in C57BL/6 mice", "type": "in vivo, mouse", "conditions": "Pan02, C57BL/6 mice, 75 mg/kg p.o. daily", "method": "(§2) Syngeneic mouse tumor‐bearing models were established as described previously (Tan et al., 2018). Tumor cells (5 × 10^5 ‐ 2 × 10^6) were suspended in 100 μl PBS and implanted subcutaneously into the flank of mice. Mice were randomized into different treatment groups when tumor volumes reached 100‐200 mm^3. V = L×W^2 × 0.52, where L is the longest diameter, and W is the shortest diameter. Tumor size and body weight were recorded every second or third day. Mouse survival was analyzed using the Kaplan–Meier method.\nas §1"}, "ADORA3": {"molecular_target": "T7, ADORA3 (Homo sapiens, UniProt P0DMS8)", "T7 construct": "Pharmaron (Beijing, China) performed the assay", "T7 sequence (P0DMS8 whole entry, species assumed)": "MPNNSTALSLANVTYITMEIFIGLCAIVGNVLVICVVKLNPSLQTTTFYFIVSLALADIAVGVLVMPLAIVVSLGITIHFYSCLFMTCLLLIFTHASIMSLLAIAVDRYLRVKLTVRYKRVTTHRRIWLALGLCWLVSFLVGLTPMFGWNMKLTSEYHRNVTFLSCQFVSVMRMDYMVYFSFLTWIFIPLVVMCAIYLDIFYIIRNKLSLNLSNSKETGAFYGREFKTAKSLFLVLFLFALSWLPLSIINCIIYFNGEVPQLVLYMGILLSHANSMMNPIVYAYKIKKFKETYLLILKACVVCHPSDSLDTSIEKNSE", "assay": "LANCE Ultra cAMP assay", "type": "cell-based"}, "MC38 tumors": {"system": "MC38 tumors", "assay": "MC38 colorectal cancer model in C57BL/6 mice", "type": "in vivo, mouse", "conditions": "MC38, 75 mg/kg p.o. daily", "method": "as §2, §1"}, "HTR1B": {"molecular_target": "HTR1B (Homo sapiens, UniProt P28222)", "sequence (P28222 whole entry)": "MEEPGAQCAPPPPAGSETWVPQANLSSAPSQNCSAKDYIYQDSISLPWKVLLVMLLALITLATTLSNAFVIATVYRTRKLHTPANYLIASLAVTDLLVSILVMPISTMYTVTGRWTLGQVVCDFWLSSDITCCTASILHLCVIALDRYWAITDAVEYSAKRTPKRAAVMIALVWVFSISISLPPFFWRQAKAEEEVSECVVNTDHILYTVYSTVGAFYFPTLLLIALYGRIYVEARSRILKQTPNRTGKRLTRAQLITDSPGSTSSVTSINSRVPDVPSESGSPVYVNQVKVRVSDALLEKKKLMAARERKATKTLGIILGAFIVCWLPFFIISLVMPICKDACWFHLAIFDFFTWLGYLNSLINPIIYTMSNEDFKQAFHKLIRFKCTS", "assay": "LANCE Ultra cAMP assay"}, "[3]": {"assay": "In vitro metabolic stability using liver microsome", "type": "in vitro ADME", "conditions": "liver microsomes"}, "CT26 tumors": {"system": "CT26 tumors", "assay": "CT26 tumors in BALB/c nude mice", "type": "in vivo, mouse", "conditions": "75 mg/kg", "method": "as §2, §1"}, "[4]": {"conditions": "male, mouse, plasma, iv, I.V. 1 mg/kg"}, "[5]": {"conditions": "male, mouse, plasma, po, P.O. 10 mg/kg"}},
  "note": "Like-named read-outs stand apart in the source and are kept apart here.",
  "data": [
    {"compound": "C[C@H](NC(=O)c1c(Cc2ccc(F)cc2)sc2c1CCOC2)c1ccc(C(=O)O)cc1", "note": "[TP-16]", "values": [
      {"measurement": "PGE2-induced polarization of M2 macrophages", "setting": "mouse bone marrow cells", "value": "significantly suppressed"},
      {"measurement": "IC50", "setting": "ADORA2A", "value": "> 10", "unit": "µM"},
      {"measurement": "IC50", "setting": "OPRK1", "value": "> 10", "unit": "µM"},
      {"measurement": "IC50", "setting": "OPRD1", "value": "> 10", "unit": "µM"},
      {"measurement": "IC50", "setting": "DRD2", "value": "> 10", "unit": "µM"},
      {"measurement": "IC50", "setting": "AODRA1", "value": "> 10", "unit": "µM"},
      {"measurement": "%TGI", "setting": "CT26-Luc tumors; CT26-Luc orthotopic model", "value": 76.22, "unit": "%"},
      {"measurement": "body weight of tumor-bearing mice", "setting": "CT26-Luc tumors; at the given doses", "value": "no significant change"},
      {"measurement": "IC50", "setting": "CHRM1", "value": "> 10", "unit": "µM"},
      {"measurement": "tumor number (multiplicity) and size", "setting": "[1]", "value": "moderately reduced"},
      {"measurement": "Vd/F", "setting": "[2]; I.V. 1 mg/kg", "value": 2.016, "unit": "L/kg"},
      {"measurement": "bioavailability", "setting": "[2]; male, mouse, plasma, 10 mg/kg, ratio of oral AUC0-∞ to intravenous AUC0-∞", "value": 40.1, "unit": "%"},
      {"measurement": "AUC(0-inf)", "setting": "[2]; [4]", "value": 2140, "unit": "ng·h/mL"},
      {"measurement": "C0", "setting": "[2]; [4]", "value": 2370, "unit": "ng/mL"},
      {"measurement": "MRT", "setting": "[2]; [4]", "value": 2.1, "unit": "h"},
      {"measurement": "half-life", "setting": "[2]; [4]", "value": 3, "unit": "h"},
      {"measurement": "AUC(0-t)", "setting": "[2]; [4]", "value": 2140, "unit": "ng·h/mL"},
      {"measurement": "AUC(0-inf)", "setting": "[2]; [5]", "value": 8580, "unit": "ng·h/mL"},
      {"measurement": "CL/F", "setting": "[2]; [5]", "value": 19.4, "unit": "mL/min/kg"},
      {"measurement": "Cmax", "setting": "[2]; [5]", "value": 3850, "unit": "ng/mL"},
      {"measurement": "MRT", "setting": "[2]; [5]", "value": 3.7, "unit": "h"},
      {"measurement": "half-life", "setting": "[2]; [5]", "value": 5.4, "unit": "h"},
      {"measurement": "AUC(0-t)", "setting": "[2]; [5]", "value": 8400, "unit": "ng·h/mL"},
      {"measurement": "Vd/F", "setting": "[2]; male, mouse, plasma, po, P.O. 10 mg/kg, read-out: Vd/F", "value": 9.08, "unit": "L/kg"},
      {"measurement": "IC50", "setting": "CHRM3", "value": "> 10", "unit": "µM"},
      {"measurement": "IC50", "setting": "CHRM2", "value": "> 10", "unit": "µM"},
      {"measurement": "IC50", "setting": "ADORA2B", "value": "> 10", "unit": "µM"},
      {"measurement": "%TGI", "setting": "Pan02 tumors", "value": 44.0, "unit": "%"},
      {"measurement": "IC50", "setting": "ADORA3", "value": "> 10", "unit": "µM"},
      {"measurement": "%TGI", "setting": "MC38 tumors", "value": 50.6, "unit": "%"},
      {"measurement": "IC50", "setting": "HTR1B", "value": "> 10", "unit": "µM"},
      {"measurement": "CLhep predicted", "setting": "[3]; human, read-out: Predicted hepatic Clint", "value": "< 4.69", "unit": "mL/min/kg"},
      {"measurement": "hepatocyte CLint", "setting": "[3]; human liver microsome", "value": "< 2.39", "unit": "µL/min/1e6 cells"},
      {"measurement": "half-life", "setting": "[3]; human liver microsome, read-out: In vitro T1/2", "value": "> 9.68", "unit": "h"},
      {"measurement": "CLint scaled", "setting": "[3]; human liver microsome, read-out: Scale-up Clint", "value": "< 6.07", "unit": "mL/min/kg"},
      {"measurement": "anti-tumor efficacy in BALB/c nude mice", "setting": "CT26 tumors", "value": "lost"}
    ]}
  ]
}
